Read-outs that look alike come from different tables or passages of the source.
Legend:
[1] = test system: pressure-loaded ex vivo rat retinas; format: cell-based; details: for retinal morphology with 3-MA alone: 10 mM
Protocol: (§1) Rat ex vivo Eyecup Preparation—Rat ex vivo eyecups were prepared from 28-32 day old male Sprague-Dawley rats (Charles River Laboratories International Inc., Wilmington, MA). The anterior half of the enucleated eyes was carefully removed to make eyecup preparations. Eyecups were placed at the bottom of a 100 ml glass beaker filled with aCSF (artificial cerebrospinal fluid) containing (in mM): 124 NaCl, 5 KCl, 2 MgSO4, 2 CaCl2, 1.25 NaH2PO4, 22 NaHCO3, and 10 glucose, and incubated at 30° C. for 24 hours using a closed pressure-loading system (FIG. 1C). pH was maintained at 7.35 to 7.40. In the closed-pressure system, a glass beaker with the eyecup was placed at the bottom of an acrylic pressure chamber (2,000 ml volume). A 95% O2-5% CO2 gas mixture was delivered through disposable plastic tubing with an infusion valve and a control dial on the lid of the pressure chamber and an air filter (Cat #SLGP033RS, Merck Millipore, Billerica, MA). The plastic tubing delivering the gas terminated 1 cm above the bottom of the beaker.
(§2) Acutely prepared eyecups were incubated in gassed aCSF for at least 1 h at 30° C. before pressure loading. In some experiments, AlloP (1 μM), ent-AlloP (1 μM), and 3-MA (10 mM) were dissolved in aCSF at the time of experiment and administered by bath perfusion. Eyecup preparations were treated with these drugs for 1 h at 30° C. before pressure loading. For pressure loading, the 95% O2-5% CO2 gas mixture was infused until the pressure reading given by a manometer reached the appropriate level. The pressure was then locked by adjusting the control dial of the effusion valve, and monitored continuously for 24 h at 30° C.
Data analysis of morphometry—The middle portion of the retina was examined, greater than 1,200 μm away from the center of the optic disc along the inner limiting membrane (ILM). The nerve fiber layer thickness (NFLT) was measured by light microscopy along 5 lines perpendicular to the pigment epithelium at a distance of 15 μm from each other around 1,200 μm away from the center of the optic disc. The average NFLT was determined in 9 different light micrographs taken from 5 eyecup samples in each condition, divided by total retinal thickness, and mean±standard deviation (%) was analyzed and compared with control.
The density of degenerated cells characterized by nuclear chromatin clumping or necrosis in the GCL was determined by counting 9 fields of 500 μm length in light micrographs taken from the block of the middle retinal part 950 to 1450 μm away from the center of the optic disc.
The severity of neuronal damage was assessed by light microscopy using a neuronal damage score (NDS). The NDS was determined in 9 different light micrographs taken from 5 eyecup samples in each condition. The NDS rates neuronal damage in the inner nuclear layer (INL) and the inner plexiform layer (IPL) on a 0-4 scale with 0 signifying no neuronal damage and 4 indicating very severe damage. Criteria used in establishing the degree of neuronal damage included the extent of cytoplasmic swelling in the IPL and the number of neurons in the INL showing signs of severe cytoplasmic swelling and coarse clumping of nuclear chromatin. The highest NDS rating (4) is given when the IPL discloses apparent spongiform appearance due to dendritic swelling and when most cell bodies in the INL show severe cytoplasmic swelling and coarse clumping of nuclear chromatin. If the damage is of a lesser degree, a rating of 3 is given. NDS 2 is assigned when cell bodies in the INL are sporadically swollen. […] Fine dendritic swelling in a limited area of the IPL without damage in the INL is described by NDS 1.
NFLT, density of degenerated cells in the GCL, and NDS were determined as the measurement of 10 different areas from three eyes per experimental condition. These morphometrical parameters were assessed by three raters, who remained unaware of the experimental condition. […]

p62 = test: Ex vivo pressure-loaded retinas, Western blot of p62; format: cell-based, rat; details: 10 mM 3-MA, 1 μM ent-AlloP, 75 mmHg
Protocol: as §1, §2
Western Blot Analysis—At the end of each experiment, the posterior segments of the eye were placed on a flat cutting surface and immersed in ice-cold aCSF. With a surgical blade, the retina was carefully and gently detached from the sclera with a fine forceps. The isolated retinas were frozen at −80° C. Retinas were then homogenized in lysis buffer solution (CelLytic MT; Sigma-Aldrich, Inc.) with protease inhibitor cocktail (Sigma-Aldrich, Inc.), prepared according to the manufacturer's instructions. The tissue extracts were ultrasonicated and clarified by centrifugation at 12,000 g for 20 minutes at 4° C. The protein concentrations in supernatants were assayed (Quant-iT assay kit; Invitrogen Corp., Carlsbad, CA). Twenty micrograms of retinal extract were subjected to SDS polyacrylamide gel electrophoretic analysis. The proteins were then transferred to a PVDF. Immunoblots by polyclonal rabbit anti-LC3B antibody (MBL Life Science) or anti-SQSTMl/p62 mouse monoclonal antibody (Abcam) were visualized using WesternBreeze Chemiluminescent Immunodetection system (Invitrogen) with the exposure time to autoradiograph film (MXJB Plus; Kodak, Rochester, NY) adjusted to avoid over- or undersaturation. Precision Plus Protein™ Western Standards (Bio-Rad, Hercules, CA) followed by Precision Protein™ strep Tactin-AP conjugate (Bio-Rad) was used for a molecular marker of LC3. […]
The density of Western blot bands was quantified using Image-Pro Plus software. Quantification was adjusted to protein expression at 10 mmHg after normalization to the β-actin band at each pressure, and the relative gray-scale value was calculated by densitometric analysis of the obtained bands. […] Differences in expression levels were evaluated using Wilcoxon Rank-Sum Test, Tukey's or Dunnett's multiple comparison test. […]

LC3-II = test: Ex vivo pressure-loaded retinas, Western blot of LC3-II; format: cell-based, rat; details: 10 mM 3-MA, 1 μM ent-AlloP, 75 mmHg
Protocol: as §1, §2
Western Blot Analysis—At the end of each experiment, the posterior segments of the eye were placed on a flat cutting surface and immersed in ice-cold aCSF. With a surgical blade, the retina was carefully and gently detached from the sclera with a fine forceps. The isolated retinas were frozen at −80° C. Retinas were then homogenized in lysis buffer solution (CelLytic MT; Sigma-Aldrich, Inc.) with protease inhibitor cocktail (Sigma-Aldrich, Inc.), prepared according to the manufacturer's instructions. The tissue extracts were ultrasonicated and clarified by centrifugation at 12,000 g for 20 minutes at 4° C. The protein concentrations in supernatants were assayed (Quant-iT assay kit; Invitrogen Corp., Carlsbad, CA). Twenty micrograms of retinal extract were subjected to SDS polyacrylamide gel electrophoretic analysis. The proteins were then transferred to a PVDF. Immunoblots by polyclonal rabbit anti-LC3B antibody (MBL Life Science) or anti-SQSTMl/p62 mouse monoclonal antibody (Abcam) were visualized using WesternBreeze Chemiluminescent Immunodetection system (Invitrogen) with the exposure time to autoradiograph film (MXJB Plus; Kodak, Rochester, NY) adjusted to avoid over- or undersaturation. Precision Plus Protein™ Western Standards (Bio-Rad, Hercules, CA) followed by Precision Protein™ strep Tactin-AP conjugate (Bio-Rad) was used for a molecular marker of LC3. MagicMark™ XP Western Protein Standard (Invitrogen, Carlsbad, CA) was used for a molecular marker of p62. Immunoblot data are normalized to β-actin levels in the same sample.
The density of Western blot bands was quantified using Image-Pro Plus software. Quantification was adjusted to protein expression at 10 mmHg after normalization to the β-actin band at each pressure, and the relative gray-scale value was calculated by densitometric analysis of the obtained bands. At least four independent experiments were performed for each condition, and the results are presented as relative units numerically. Differences in expression levels were evaluated using Wilcoxon Rank-Sum Test, Tukey's or Dunnett's multiple comparison test. Sample numbers were four to five per each experimental condition.

Compound	effect of picrotoxin on the neuroprotective effect of AlloP ([1]; 1 μM picrotoxin + 1 μM AlloP, hyperbaric conditions (75 mmHg))	effect of picrotoxin on the effects of ent-AlloP ([1]; 1 μM picrotoxin + 1 μM ent-AlloP, 75 mmHg)	effect of 3-MA on neuroprotection by AlloP ([1]; 10 mM 3-MA + 1 μM AlloP, 75 mmHg)	effect of 3-MA on the effects of ent-AlloP ([1]; 10 mM 3-MA + 1 μM ent-AlloP, 75 mmHg)	retinal morphology with 3-MA alone ([1]; 10 mmHg)	retinal morphology with 3-MA alone ([1]; 75 mmHg)	effect of 3-MA on the decrease of p62 levels induced by ent-AlloP (p62)	effect of 3-MA on upregulation of LC3-II levels induced by ent-AlloP (LC3-II)
picrotoxin	overcame the neuroprotective effect of AlloP	did not alter the effects of ent-AlloP						
Cn1cnc(N)c2ncnc1-2 [3-MA, 3-methyladenine]			did not alter neuroprotection by AlloP	dampened the effects of ent-AlloP	neurodegenerative	neurodegenerative	reversed	dampened

Source: patent US20240041898A9, “NEUROSTEROIDS AND ENANTIOMERS THEREOF FOR THE PREVENTION AND TREATMENT OF NEURODEGENERATIVE CONDITIONS” (priority 2019, published 2024)
